Blank lines part the entries; values can stand above or below the molecule they belong to.
Key:
[1] = target: T1, alpha-glucosidase (Saccharomyces cerevisiae); experiment: p-nitrophenol release, absorbance […] nm; type: biochemical; conditions: p-nitrophenyl alpha-D-glucopyranoside 5 mM stock (20 μL), 100 mM phosphate pH 6.8, 37 °C, 15 min preincubation
T1 construct: gene MAL12; commercial preparation from Sigma-Aldrich

[2] = target: T2, alpha-amylase (α–amylase); experiment: DNS colorimetric assay; type: biochemical; conditions: starch 0.5%, 20 mM phosphate pH 6.9, 25 °C, 10 min preincubation
T2 construct: commercial preparation from Sigma-Aldrich

Compound: N#Cc1c(N)nc2c(c1-c1ccc(Cl)cc1)SC1(CCCCC1)N2c1ccc(N)cc1 [compound 6, 5′-amino-3′-(4-aminophenyl)-7′-(4-chlorophenyl)-3′H-spiro[cyclohexane-1,2′-thiazolo[4,5-b]pyridine]-6′-carbonitrile]
** IC50 [1]: 63.6 µg/mL
** IC50 [2]: 94.9 µg/mL

Compound: N#Cc1c(-c2ccc(Cl)cc2)c2c([nH]c1=O)N(c1ccc(N)cc1)C1(CCCCC1)S2 [compound 7, 3′-(4-aminophenyl)-7′-(4-chlorophenyl)-5′-oxo-4′,5′-dihydro-3′H-spiro[cyclohexane-1,2′-thiazolo[4,5-b]pyridine]-6′-carbonitrile]
** IC50 [1]: 117.36 µg/mL
** IC50 [2]: 239.37 µg/mL

Compound: Nc1ccc(N2c3[nH]nc(-c4ccc(Cl)cc4)c3SC23CCCCC3)cc1 [compound 9, 4-(3′-(4-chlorophenyl)-spiro[cyclohexane-1,5′-pyrazolo[3,4-d]thiazol]-6′ (1′H)-yl)aniline]
** IC50 [1]: 52.47 µg/mL
** IC50 [2]: 58.85 µg/mL

Compound: N#Cc1c(-c2ccc(Cl)cc2)c2c(n(CCO)c1=O)N(c1ccc(N)cc1)C1(CCCCC1)S2 [compound 13, 3′-(4-aminophenyl)-7′-(4-chlorophenyl)-4′-(2-hydroxyethyl)-5′-oxo-4′,5′-dihydro-3′H-spiro[cyclohexane-1,2′-thiazolo[4,5-b]pyridine]-6′-carbonitrile]
** IC50 [1]: 118.11 µg/mL
** IC50 [2]: 271.3 µg/mL

Compound: CCOC(=O)Cn1c2c(c(-c3ccc(Cl)cc3)c(C#N)c1=O)SC1(CCCCC1)N2c1ccc(N)cc1 [compound 16, Ethyl 2-(3′-(4-aminophenyl)-7′-(4-chlorophenyl)-6′-cyano-5′-oxo-3′,5′-dihydro-4′H-spiro [cyclohexane-1,2′-thiazolo[4,5-b]pyridin]-4′-yl)acetate]
** IC50 [1]: 570.4 µg/mL
** IC50 [2]: > 1000 µg/mL

Second part, the molecule after the results:

** IC50 [1]: 120.22 µg/mL
** IC50 [2]: 297.8 µg/mL
Compound: Nc1ccc(N2C(=O)CSC23CCCCC3)cc1 [compound 1, 4-(4-aminophenyl)-1-thia-4-azaspiro[4.5]decan-3-one]

** IC50 [1]: 363.67 µg/mL
** IC50 [2]: 421.42 µg/mL
Compound: NN=C1CSC2(CCCCC2)N1c1ccc(N)cc1 [compound 2, 4-(3-hydrazono-1-thia-4-azaspiro[4.5]decan-4-yl)aniline]

** IC50 [1]: 114.45 µg/mL
** IC50 [2]: 199.01 µg/mL
Compound: Nc1ccc(N2C(=O)C(=Cc3ccc(Cl)cc3)SC23CCCCC3)cc1 [compound 8, 4-(4-aminophenyl)-2-(4-chlorobenzylidene)-1-thia-4-azaspiro[4.5]decan-3-one]

Source: publication PMC6650905, “Development of a Novel Series of Anticancer and Antidiabetic: Spirothiazolidines Analogs” (Molecules, 2019)
